Molecular target: CM11CD746~1R~TET (Chara corallina, UniProt Q9SSU1)
Settings: actin filaments; 25 mM imidazole, 25 mM KCl, 1 mM EGTA, 2 mM free Mg2+

Sequence of CM11CD746~1R~TET (Q9SSU1 1-746): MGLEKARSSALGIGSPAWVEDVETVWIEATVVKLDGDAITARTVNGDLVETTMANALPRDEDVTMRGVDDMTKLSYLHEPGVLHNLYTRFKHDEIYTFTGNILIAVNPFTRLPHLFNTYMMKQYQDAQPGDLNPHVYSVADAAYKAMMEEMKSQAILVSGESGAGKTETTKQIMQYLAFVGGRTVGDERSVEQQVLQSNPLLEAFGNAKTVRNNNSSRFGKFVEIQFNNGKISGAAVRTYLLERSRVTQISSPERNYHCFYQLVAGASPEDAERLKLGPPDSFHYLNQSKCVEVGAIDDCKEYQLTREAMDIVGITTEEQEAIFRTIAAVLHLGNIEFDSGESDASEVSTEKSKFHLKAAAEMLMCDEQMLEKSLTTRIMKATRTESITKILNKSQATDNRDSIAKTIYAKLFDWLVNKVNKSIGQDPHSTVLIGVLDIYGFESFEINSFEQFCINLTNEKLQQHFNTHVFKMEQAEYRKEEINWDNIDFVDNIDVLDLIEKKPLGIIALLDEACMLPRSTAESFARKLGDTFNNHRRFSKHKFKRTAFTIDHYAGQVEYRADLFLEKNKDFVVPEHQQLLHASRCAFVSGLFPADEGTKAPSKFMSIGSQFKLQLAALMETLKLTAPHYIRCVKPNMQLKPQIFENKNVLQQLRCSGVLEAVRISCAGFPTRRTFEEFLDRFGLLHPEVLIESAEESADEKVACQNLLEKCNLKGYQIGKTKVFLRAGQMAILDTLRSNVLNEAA

SMILES: Nc1ncnc2c1ncn2[C@@H]1O[C@H](COP(=O)(O)OP(=O)(O)OP(=O)(O)O)[C@@H](O)[C@H]1O [ATP]
- single-molecule fluorescence tracking, run length and velocity vs [ATP]: velocities are shown (mean ± s.e.m.) as a function of [ATP]

— PMC4914611 (Nature nanotechnology, 2013)
